# Target: Egt1 (Neurospora crassa, UniProt Q7RX33)
# Assay: oxygen consumption, NeoFox oxygen electrode
# Format: biochemical
# Egt1, sequence (Q7RX33 whole entry): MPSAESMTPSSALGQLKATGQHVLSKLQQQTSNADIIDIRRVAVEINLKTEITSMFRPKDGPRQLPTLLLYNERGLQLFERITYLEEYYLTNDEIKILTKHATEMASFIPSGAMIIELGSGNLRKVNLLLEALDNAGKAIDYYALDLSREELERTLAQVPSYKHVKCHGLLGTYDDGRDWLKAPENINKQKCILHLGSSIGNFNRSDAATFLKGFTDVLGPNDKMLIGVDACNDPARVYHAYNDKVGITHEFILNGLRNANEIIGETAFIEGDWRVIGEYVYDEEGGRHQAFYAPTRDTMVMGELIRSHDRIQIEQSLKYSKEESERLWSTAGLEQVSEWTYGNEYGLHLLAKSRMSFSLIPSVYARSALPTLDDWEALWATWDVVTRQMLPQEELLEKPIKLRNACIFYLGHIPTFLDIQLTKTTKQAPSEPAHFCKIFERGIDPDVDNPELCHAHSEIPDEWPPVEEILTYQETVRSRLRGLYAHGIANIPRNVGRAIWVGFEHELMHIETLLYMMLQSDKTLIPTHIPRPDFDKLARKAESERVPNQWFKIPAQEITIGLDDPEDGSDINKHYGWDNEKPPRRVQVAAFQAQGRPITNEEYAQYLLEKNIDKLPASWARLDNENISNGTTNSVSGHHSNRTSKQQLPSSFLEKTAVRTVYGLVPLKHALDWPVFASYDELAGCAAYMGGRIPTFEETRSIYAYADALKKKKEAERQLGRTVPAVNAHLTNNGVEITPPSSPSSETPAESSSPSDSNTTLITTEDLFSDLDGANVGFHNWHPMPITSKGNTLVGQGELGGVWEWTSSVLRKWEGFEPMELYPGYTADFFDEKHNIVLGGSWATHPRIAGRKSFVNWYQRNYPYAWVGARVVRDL
smiles,measurement,value
"C[N+](C)(C)[C@@H](Cc1cnc[nH]1)C(=O)[O-] [compound 2, hercynine]",Km,0.436 ± 0.03 mM
N[C@@H](CCC(=O)N[C@@H](CS)C(=O)O)C(=O)O [γ-Glu-Cys],Km,7.68 ± 1.11 mM
